These results are taken from US20050049210A1, “Methods for the controlled delivery of pharmacologically active compounds” (IDEXX Laboratories, Inc., priority 2003, published 2005).

Data set [1] in a line: Solubility of fatty acid salt in water immiscible solvent. The class given is physicochemical. Particulars: amine group neutralized with linoleic acid, in isopropyl myristate. The text has this:
Oxytetracycline has one tertiary amine group, and the hydrochloride salt of oxytetracycline is readily soluble in water. Adding one mole of fatty acid to one mole of oxytetracycline creates a salt that is more soluble than unmodified oxytetracycline in isopropyl myristate.
When the two amine groups of tilmicosin are neutralized with any of several fatty acids (such as, for example, decanoic C10, lauric C12, myristic C14, palmitic C16, stearic C18, oleic C18, elaidic C18, linoleic C18, and erucic C22, sebacic, dodecanedioic), the resulting salt is soluble in pharmaceutically-acceptable water immiscible solvents. When a formulation of the salt (tilmicosin-linoleic acid) is sealed in a dialysis cassette and place in saline, the tilmicosin salt remains a cohesive mass, and tilmicosin is slowly released from the bag. The rate of release is a function of the chain length of the fatty acid, the solvent, and the tilmicosin-fatty acid salt concentration.
Roxithromycin is effective against a broad range of bacteria, and is used for the treatment of respiratory diseases in cattle. The amine group of roxithromycin can be neutralized with linoleic acid in isopropyl myristate, and a clear solution is obtained at 200 mg/ml.
Terbinafine is a specific inhibitor of squaline epoxidase, a key enzyme in fungal ergosterol biosynthesis. […]

Data set [2] can be described thus: Solubility of salt in water. The class given is physicochemical. To be noted: linoleic acid salt. The protocol: Terbinafine is a specific inhibitor of squaline epoxidase, a key enzyme in fungal ergosterol biosynthesis. The amine group of terbinafine was neutralized with linoleic acid in ispropyl myristate, resulting in a clear solution at 150 mg/ml.
The next data set has as its system dogs. To be noted: tilmicosin in conventional form; cited from earlier work.

For `CC[C@H]1OC(=O)[C@H](C)[C@@H](OC2CC(C)(OC)C(O)C(C)O2)[C@H](C)[C@@H](OC2OC(C)CC(N(C)C)C2O)[C@](C)(O)C[C@@H](C)/C(=N\OCOCCOC)[C@H](C)[C@@H](O)[C@]1(C)O` (stereo partly shown) [roxithromycin, Roxithromycin], in data set [1], the “concentration at which a clear solution is obtained” value was 200000 µg/mL.
As to `CN(C/C=C/C#CC(C)(C)C)Cc1cccc2ccccc12` [terbinafine, Terbinafine], the “solubility of the resulting salt in water” value in data set [2] is listed as “highly insoluble”. Besides, the “concentration at which a clear solution is obtained” value in data set [1] was found to be 150000 µg/mL.
As to Tilmicosin, the “dose normally lethal in dogs” value in the data set with dogs is reported as 50 mg/kg.
